Results reported in patent publication US12310975B2, “Modulators of BCL6 proteolysis and associated methods of use” (Arvinas Operations, Inc., priority 2019, dated 2025).

What was measured:
BCL6 [1] = biological target: T1, BCL6 (Homo sapiens (Human), UniProt P41182); experiment: Immunofluorescence high content imaging of BCL6 degradation in T47D cells; type: cell-based; details: for Dmax: T47D
Procedure, shortened: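 Read-out is BCL6 immunofluorescence quantified by high-content imaging (10×, 4 fields per well) of T47D breast cancer cells. Cells were exposed for 3 days to degrader in an 11-point, 3-fold serial dilution reaching a final top concentration of 0.1 or 1 μM.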

BCL6 [2] = biological target: T1, BCL6; experiment: BCL6 TR-FRET assay (BCL6-Avitag-Biotin / BCoR-Cy5 peptide); type: binding
Procedure, shortened: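 TR-FRET displacement assay: biotinylated His-SUMO-BCL6-Avitag (2 nM) pre-incubated 30 min at room temperature with compound (12-point 3-fold titration), then BCoR-Cy5 peptide (100 nM) and Eu-streptavidin (2 nM) added. Buffer: 50 mM HEPES pH 7.5, 125 mM NaCl, 0.01% Triton X, glutathione or DTT, 0.03% BSA. Read after 2 h.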

| SMILES | IC50 (BCL6 [1]) | Dmax (BCL6 [1]) | EC50 (BCL6 [2]) |
| --- | --- | --- | --- |
| CNC(=O)COc1cc2cc(Nc3nc(N4CCN(CC5CCN(c6cccc7c6C(=O)N(C6CCC(=O)NC6=O)C7=O)CC5)CC4)ncc3Cl)ccc2n(C)c1=O (stereo not shown) [compound 207, 2-((6-((5-chloro-2-(4-((1-(2-(2,6-dioxopiperidin-3-yl)-1,3-dioxoisoindolin-4-yl)piperidin-4-yl)methyl)piperazin-1-yl)pyrimidin-4-yl)amino)-1-methyl-2-oxo-1,2-dihydroquinolin-3-yl)oxy)-N-methylacetamide] | < 10 nM | ≥ 70% | 10 to 50 nM |
| CNC(=O)COc1cc2cc(Nc3nc(N4CCCN(c5ccc6c(c5)C(=O)N(C5CCC(=O)NC5=O)C6=O)CC4)ncc3Cl)ccc2n(C)c1=O (stereo not shown) [compound 208, 2-((6-((5-chloro-2-(4-(2-(2,6-dioxopiperidin-3-yl)-1,3-dioxoisoindolin-5-yl)-1,4-diazepan-1-yl)pyrimidin-4-yl)amino)-1-methyl-2-oxo-1,2-dihydroquinolin-3-yl)oxy)-N-methylacetamide] | 50 to 100 nM | 50 to 70% | 50 to 100 nM |
| CONC(=O)COc1cc2cc(Nc3nc(N4CCC(CN5CCN(c6ccc7c(c6)C(=O)N(C6CCC(=O)NC6=O)C7=O)CC5)CC4)ncc3Cl)ccc2n(C)c1=O (stereo not shown) [compound 209, 2-((6-((5-chloro-2-(4-((4-(2-(2,6-dioxopiperidin-3-yl)-1,3-dioxoisoindolin-5-yl)piperazin-1-yl)methyl)piperidin-1-yl)pyrimidin-4-yl)amino)-1-methyl-2-oxo-1,2-dihydroquinolin-3-yl)oxy)-N-methoxyacetamide] | 10 to 50 nM | ≥ 70% | > 100 nM |
| CNC(=O)[C@@H](C)Oc1cc2cc(Nc3nc(N4CCC(CN5CCN(c6ccc7c(c6)C(=O)N([C@H]6CCC(=O)NC6=O)C7=O)CC5)CC4)ncc3Cl)ccc2n(C)c1=O [compound 210, (R)-2-((6-((5-chloro-2-(4-((4-(2-((S)-2,6-dioxopiperidin-3-yl)-1,3-dioxoisoindolin-5-yl)piperazin-1-yl)methyl)piperidin-1-yl)pyrimidin-4-yl)amino)-1-methyl-2-oxo-1,2-dihydroquinolin-3-yl)oxy)-N-methylpropanamide] | ≥ 100 nM |  | 10 to 50 nM |
| CNC(=O)[C@H](C)Oc1cc2cc(Nc3nc(N4CCC(CN5CCN(c6ccc7c(c6)C(=O)N([C@H]6CCC(=O)NC6=O)C7=O)CC5)CC4)ncc3Cl)ccc2n(C)c1=O [compound 211, (S)-2-((6-((5-chloro-2-(4-((4-(2-((S)-2,6-dioxopiperidin-3-yl)-1,3-dioxoisoindolin-5-yl)piperazin-1-yl)methyl)piperidin-1-yl)pyrimidin-4-yl)amino)-1-methyl-2-oxo-1,2-dihydroquinolin-3-yl)oxy)-N-methylpropanamide] | ≥ 100 nM |  | > 100 nM |
| CNC(=O)[C@@H](C)Oc1cc2cc(Nc3nc(N4CCC(CN5CCN(c6ccc7c(c6)C(=O)N([C@@H]6CCC(=O)NC6=O)C7=O)CC5)CC4)ncc3Cl)ccc2n(C)c1=O [compound 212, (R)-2-((6-((5-chloro-2-(4-((4-(2-((R)-2,6-dioxopiperidin-3-yl)-1,3-dioxoisoindolin-5-yl)piperazin-1-yl)methyl)piperidin-1-yl)pyrimidin-4-yl)amino)-1-methyl-2-oxo-1,2-dihydroquinolin-3-yl)oxy)-N-methylpropanamide] | ≥ 100 nM |  | 10 to 50 nM |
| CNC(=O)[C@H](C)Oc1cc2cc(Nc3nc(N4CCC(CN5CCN(c6ccc7c(c6)C(=O)N([C@@H]6CCC(=O)NC6=O)C7=O)CC5)CC4)ncc3Cl)ccc2n(C)c1=O [compound 213, (S)-2-((6-((5-chloro-2-(4-((4-(2-((R)-2,6-dioxopiperidin-3-yl)-1,3-dioxoisoindolin-5-yl)piperazin-1-yl)methyl)piperidin-1-yl)pyrimidin-4-yl)amino)-1-methyl-2-oxo-1,2-dihydroquinolin-3-yl)oxy)-N-methylpropanamide] | ≥ 100 nM |  | > 100 nM |
| CNC(=O)c1cc2cc(Nc3nc(N4CCC(CN5CCN(c6ccc7c(c6)C(=O)N(C6CCC(=O)NC6=O)C7=O)CC5)CC4)ncc3Cl)ccc2n(C)c1=O (stereo not shown) [compound 214, 6-((5-chloro-2-(4-((4-(2-(2,6-dioxopiperidin-3-yl)-1,3-dioxoisoindolin-5-yl)piperazin-1-yl)methyl)piperidin-1-yl)pyrimidin-4-yl)amino)-N,1-dimethyl-2-oxo-1,2-dihydroquinoline-3-carboxamide] | ≥ 100 nM |  | > 100 nM |

The remaining lines, values ahead:

| IC50 (BCL6 [1]) | Dmax (BCL6 [1]) | EC50 (BCL6 [2]) | SMILES |
| --- | --- | --- | --- |
| 10 to 50 nM | < 50% | 50 to 100 nM | CNC(=O)COc1cc2cc(Nc3nc(N4CCCN(CC5CCN(c6ccc7c(c6)C(=O)N(C6CCC(=O)NC6=O)C7=O)CC5)CC4)ncc3Cl)ccc2n(C)c1=O (stereo not shown) [compound 215, 2-((6-((5-chloro-2-(4-((1-(2-(2,6-dioxopiperidin-3-yl)-1,3-dioxoisoindolin-5-yl)piperidin-4-yl)methyl)-1,4-diazepan-1-yl)pyrimidin-4-yl)amino)-1-methyl-2-oxo-1,2-dihydroquinolin-3-yl)oxy)-N-methylacetamide] |
| 10 to 50 nM | < 50% | > 100 nM | CC(=O)[C@@H](C)Oc1cc2cc(Nc3nc(N4CCC(CN5CCN(c6ccc7c(c6)C(=O)N([C@H]6CCC(=O)NC6=O)C7=O)CC5)CC4)ncc3Cl)ccc2n(C)c1=O [compound 216, 5-(4-((1-(5-chloro-4-((1-methyl-2-oxo-3-(((R)-3-oxobutan-2-yl)oxy)-1,2-dihydroquinolin-6-yl)amino)pyrimidin-2-yl)piperidin-4-yl)methyl)piperazin-1-yl)-2-((S)-2,6-dioxopiperidin-3-yl)isoindoline-1,3-dione] |
| ≥ 100 nM | < 50% | > 100 nM | CC(=O)[C@H](C)Oc1cc2cc(Nc3nc(N4CCC(CN5CCN(c6ccc7c(c6)C(=O)N([C@H]6CCC(=O)NC6=O)C7=O)CC5)CC4)ncc3Cl)ccc2n(C)c1=O [compound 217, 5-(4-((1-(5-chloro-4-((1-methyl-2-oxo-3-(((S)-3-oxobutan-2-yl)oxy)-1,2-dihydroquinolin-6-yl)amino)pyrimidin-2-yl)piperidin-4-yl)methyl)piperazin-1-yl)-2-((S)-2,6-dioxopiperidin-3-yl)isoindoline-1,3-dione] |
| ≥ 100 nM | < 50% | > 100 nM | CC(=O)[C@@H](C)Oc1cc2cc(Nc3nc(N4CCC(CN5CCN(c6ccc7c(c6)C(=O)N([C@@H]6CCC(=O)NC6=O)C7=O)CC5)CC4)ncc3Cl)ccc2n(C)c1=O [compound 218, 5-(4-((1-(5-chloro-4-((1-methyl-2-oxo-3-(((R)-3-oxobutan-2-yl)oxy)-1,2-dihydroquinolin-6-yl)amino)pyrimidin-2-yl)piperidin-4-yl)methyl)piperazin-1-yl)-2-((R)-2,6-dioxopiperidin-3-yl)isoindoline-1,3-dione] |
| 50 to 100 nM | < 50% | > 100 nM | CC(=O)[C@H](C)Oc1cc2cc(Nc3nc(N4CCC(CN5CCN(c6ccc7c(c6)C(=O)N([C@@H]6CCC(=O)NC6=O)C7=O)CC5)CC4)ncc3Cl)ccc2n(C)c1=O [compound 219, 5-(4-((1-(5-chloro-4-((1-methyl-2-oxo-3-(((S)-3-oxobutan-2-yl)oxy)-1,2-dihydroquinolin-6-yl)amino)pyrimidin-2-yl)piperidin-4-yl)methyl)piperazin-1-yl)-2-((R)-2,6-dioxopiperidin-3-yl)isoindoline-1,3-dione] |
